This note sets out measurements from ChEMBL document CHEMBL3045108, “Advanced QSRR models of toxicological screening of basic drugs in whole blood by UPLC-TOFMS” (Med Chem Res, 2012).

The data set deals with Blood. As to the kind of experiment: Drug level in Homo sapiens (human) whole blood assessed as retention time by UPLC-TOF-MS analysis.
As to `CN(C)CCc1c[nH]c2ccccc12`, the Retention_time was determined as 2.89 min. In the case of `CNC(C)Cc1ccc(OC)cc1` (stereo not drawn), the Retention_time amounted to 3.14 min. For `CN1CCC[C@@H]1Cc1c[nH]c2ccc(CCS(=O)(=O)c3ccccc3)cc12`, the Retention_time is listed as 5.21 min. The figure for `CCCc1nc(C)c2c(=O)[nH]c(-c3cc(S(=O)(=O)N4CCN(CC)CC4)ccc3OCC)nn12` is 5.17 min; for `CNCCCC1(c2ccc(F)cc2)OCc2cc(C#N)ccc21` (stereo not drawn) it is 5.47 min; for `CCCc1nn(C)c2c(=O)[nH]c(-c3cc(S(=O)(=O)N4CCN(C)CC4)ccc3OCC)nc12` it is 5.54 min.

On to `CC(C=C(c1ccccc1)c1ccccc1)N(C)C` (stereo not drawn), for which the Retention_time was found to be 5.72 min. Take `CCNCCN1C(=O)CN=C(c2ccccc2F)c2cc(Cl)ccc21`: the Retention_time was 6.19 min. With `NC1=Nc2ccc(Cl)cc2C(c2ccccc2)=[N+]([O-])C1`, the Retention_time was determined as 4.85 min. In the case of `CCC(Cc1ccc2c(c1)OCO2)NC` (stereo not drawn), the Retention_time was 3.61 min. Consider `COc1cc(CCN)c(OC)cc1Br`, for which the Retention_time came to 4.52 min. With `COc1cc(CCN)c(OC)cc1I`, the Retention_time is on record as 4.92 min. Under `CN(C)c1nc(N)c(C(=O)NC(=N)N)nc1Cl` stands 3.54 min; under `CCOC(=O)[C@H](CCc1ccccc1)N[C@@H](C)C(=O)N1CCC[C@H]1C(=O)O`, 5.23 min; under `COc1ccc(N2CCNCC2)cc1`, 2.59 min. Turning to `COc1ccc(CCN(C)CCCC(C#N)(c2ccc(OC)c(OC)c2)C(C)C)cc1OC` (stereo not drawn), the Retention_time worked out at 5.95 min. Under `CN1C(=O)CN=C(c2ccccc2F)c2cc(N)ccc21` [7-AMINO-FLUNITRAZEPAM] stands 4.02 min.

As for `Nc1ccc2c(c1)C(c1ccccc1)=NCC(=O)N2` [7-AMINO-NITRAZEPAM], the Retention_time came to 2.26 min. For the compound `Nc1ccc2c(c1)C(c1ccccc1Cl)=NCC(=O)N2` [7-AMINOCLONAZEPAM], the Retention_time came to 3.39 min.

With `CCCC(=O)Nc1ccc(OCC(O)CNC(C)C)c(C(C)=O)c1` (stereo not drawn) [ACEBUTOLOL], the Retention_time came to 4.07 min. The figure for `CC(=O)c1ccc2c(c1)N(CCCN(C)C)c1ccccc1S2` [ACEPROMAZINE] is 5.67 min; for `Cc1ccc(/C(=C\CN2CCCC2)c2cccc(/C=C/C(=O)O)n2)cc1` [ACRIVASTINE] it is 5.64 min. In the case of `Cc1nnc2n1-c1ccc(Cl)cc1C(c1ccccc1)=NC2` [ALPRAZOLAM], the Retention_time turned out to be 6.09 min. Regarding `CCN1CCCC1CNC(=O)c1cc(S(=O)(=O)CC)c(N)cc1OC` (stereo not drawn) [AMISULPRIDE], the Retention_time amounted to 3.4 min. The figure for `CN(C)CCC=C1c2ccccc2CCc2ccccc21` [AMITRIPTYLINE] is 5.86 min; for `CCOC(=O)C1=C(COCCN)NC(C)=C(C(=O)OC)C1c1ccccc1Cl` (stereo not drawn) [AMLODIPINE] it is 5.94 min. For the compound `CC(N)Cc1ccccc1` (stereo not drawn) [AMPHETAMINE], the Retention_time came out at 2.6 min. Regarding `O=C1CCc2ccc(OCCCCN3CCN(c4cccc(Cl)c4Cl)CC3)cc2N1` [ARIPIPRAZOLE], the Retention_time is 5.9 min. In the case of `CN(C)C(=O)Oc1cc(OC(=O)N(C)C)cc(C(O)CNC(C)(C)C)c1` (stereo not drawn) [BAMBUTEROL], the Retention_time stood at 4.84 min. For `CCOC(=O)c1ccc(N)cc1` [BENZOCAINE], the Retention_time was 5.15 min. For `C[C@@H](Cc1ccccc1)N(C)Cc1ccccc1` [BENZPHETAMINE], the Retention_time came out at 5.24 min. Take `OC(CCN1CCCCC1)(c1ccccc1)C1CC2C=CC1C2` (stereo not drawn) [BIPERIDEN]: the Retention_time is 5.78 min. With `CC(C)NCC(O)COc1ccc(COCCOC(C)C)cc1` (stereo not drawn) [BISOPROLOL], the Retention_time is reported as 5.06 min.

In the case of `O=C1CN=C(c2ccccn2)c2cc(Br)ccc2N1` [BROMAZEPAM], the Retention_time worked out at 5.33 min. Turning to `Cc1nnc2n1-c1sc(Br)cc1C(c1ccccc1Cl)=NC2` [BROTIZOLAM], the Retention_time amounted to 6.27 min. The figure for `CCCCN1CCCCC1C(=O)Nc1c(C)cccc1C` (stereo not drawn) [BUPIVACAINE] is 5.08 min; for `CO[C@]12CC[C@@]3(C[C@@H]1[C@](C)(O)C(C)(C)C)[C@H]1Cc4ccc(O)c5c4[C@@]3(CCN1CC1CC1)[C@H]2O5` [BUPRENORPHINE] it is 5.59 min; for `O=C1CC2(CCCC2)CC(=O)N1CCCCN1CCN(c2ncccn2)CC1` [BUSPIRONE] it is 5.14 min. Under `COc1ccccc1OCCNCC(O)COc1cccc2[nH]c3ccccc3c12` (stereo not drawn) [CARVEDILOL] stands 5.71 min. In the case of `C[C@H](N)[C@@H](O)c1ccccc1` [CATHINE], the Retention_time came out at 2.05 min. Under `C[C@H](N)C(=O)c1ccccc1` [CATHINONE] stands 2.09 min; under `CNC1=Nc2ccc(Cl)cc2C(c2ccccc2)=[N+]([O-])C1` [CHLORDIAZEPOXIDE], 4.94 min. Under `Clc1cccc(N2CCNCC2)c1` [CHLOROPHENYLPIPERAZINE] stands 4.08 min; under `CN(C)CCCN1c2ccccc2Sc2ccc(Cl)cc21` [CHLORPROMAZINE], 6.12 min; under `CN(C)CC/C=C1/c2ccccc2Sc2ccc(Cl)cc21` [CHLORPROTHIXENE], 6.18 min.

Take `C(=C\c1ccccc1)/CN1CCN(C(c2ccccc2)c2ccccc2)CC1` [CINNARIZINE]: the Retention_time came to 6.57 min. In the case of `CN(C)CCCC1(c2ccc(F)cc2)OCc2cc(C#N)ccc21` (stereo not drawn) [CITALOPRAM], the Retention_time stood at 5.53 min. The figure for `CN1C(=O)CC(=O)N(c2ccccc2)c2cc(Cl)ccc21` [CLOBAZAM] is 6.28 min; for `CN(C)CCCN1c2ccccc2CCc2ccc(Cl)cc21` [CLOMIPRAMINE] it is 6.22 min. On to `O=C1CN=C(c2ccccc2Cl)c2cc([N+](=O)[O-])ccc2N1` [CLONAZEPAM], for which the Retention_time is on record as 5.99 min.

Take `Clc1cccc(Cl)c1N=C1NCCN1` [CLONIDINE]: the Retention_time amounted to 2.44 min. Under `CN1CCN(C2=Nc3cc(Cl)ccc3Nc3ccccc32)CC1` [CLOZAPINE] stands 5.1 min; under `COC(=O)[C@H]1[C@@H](OC(=O)c2ccccc2)C[C@@H]2CC[C@H]1N2C` [COCAINE], 4.46 min. Regarding `COc1ccc2c3c1O[C@H]1[C@@H](O)C=C[C@H]4[C@@H](C2)N(C)CC[C@@]341` [CODEINE], the Retention_time was 2.5 min. The figure for `CN1CCN(C(c2ccccc2)c2ccccc2)CC1` [CYCLIZINE] is 5.52 min.

Consider `O=C1C[N+]([O-])=C(c2ccccc2)c2cc(Cl)ccc2N1` [DEMOXEPAM], for which the Retention_time stood at 5.62 min.

For the compound `COc1ccc2c(c1)[C@]13CCCC[C@@H]1[C@H](C2)N(C)CC3` [DEXTROMETHORPHAN], the Retention_time was 5.38 min. The figure for `CN1CC[C@@]23CCCC[C@@H]2[C@@H]1Cc1ccc(O)cc13` [DEXTRORPHAN] is 3.82 min; for `CCN(CC)C(C)C(=O)c1ccccc1` (stereo not drawn) [DIETHYLPROPION] it is 3.05 min; for `COc1ccc([C@@H]2Sc3ccccc3N(CCN(C)C)C(=O)[C@@H]2OC(C)=O)cc1` [DILTIAZEM] it is 5.63 min. The figure for `CCOC(=O)C1(c2ccccc2)CCN(CCC(C#N)(c2ccccc2)c2ccccc2)CC1` [DIPHENOXYLATE] is 6.56 min; for `COc1cc(CC(C)N)c(OC)cc1C` (stereo not drawn) [DOM] it is 4.67 min. Under `COc1cc2nc(N3CCN(C(=O)C4COc5ccccc5O4)CC3)nc(N)c2cc1OC` (stereo not drawn) [DOXAZOSIN] stands 5.43 min; under `CN(C)CCC=C1c2ccccc2COc2ccccc21` [DOXEPIN], 5.59 min; under `c1cc2c(c(N3CCNCC3)c1)OCCO2` [ELTOPRAZINE], 4.9 min. With `CN[C@@H](C)[C@H](O)c1ccccc1` [EPHEDRINE], the Retention_time is given as 2.28 min. With `Clc1ccc2c(c1)C(c1ccccc1)=NCc1nncn1-2` [ESTAZOLAM], the Retention_time worked out at 5.95 min. In the case of `CCOC(=O)C1=C(C)NC(C)=C(C(=O)OC)C1c1cccc(Cl)c1Cl` (stereo not drawn) [FELODIPINE], the Retention_time is on record as 7.44 min.

Regarding `O=C(NCC1CCCCN1)c1cc(OCC(F)(F)F)ccc1OCC(F)(F)F` (stereo not drawn) [FLECAINIDE], the Retention_time came out at 5.58 min.

As for `CCOC(=O)c1ncn2c1CN(C)C(=O)c1cc(F)ccc1-2` [FLUMAZENIL], the Retention_time amounted to 5.13 min. For `CN1C(=O)CN=C(c2ccccc2F)c2cc([N+](=O)[O-])ccc21` [FLUNITRAZEPAM], the Retention_time is 6.16 min. The figure for `CNCCC(Oc1ccc(C(F)(F)F)cc1)c1ccccc1` (stereo not drawn) [FLUOXETINE] is 6.08 min; for `CCN(CC)CCN1C(=O)CN=C(c2ccccc2F)c2cc(Cl)ccc21` [FLURAZEPAM] it is 5.53 min. Consider `COCCCC/C(=N\OCCN)c1ccc(C(F)(F)F)cc1` [FLUVOXAMINE], for which the Retention_time is given as 5.91 min. The figure for `NCC1(CC(=O)O)CCCCC1` [GABAPENTIN] is 2.41 min; for `O=C1CN=C(c2ccccc2)c2cc(Cl)ccc2N1CC(F)(F)F` [HALAZEPAM] it is 7.22 min; for `O=C(CCCN1CCC(O)(c2ccc(Cl)cc2)CC1)c1ccc(F)cc1` [HALOPERIDOL] it is 5.57 min. The figure for `COc1ccc2c3c1O[C@H]1C(=O)CC[C@H]4[C@@H](C2)N(C)CC[C@]314` [HYDROCODONE] is 2.96 min.

Consider `CN1CC[C@]23c4c5ccc(O)c4O[C@H]2C(=O)CC[C@H]3[C@H]1C5` [HYDROMORPHONE], for which the Retention_time is 1.84 min.

For the compound `OCCOCCN1CCN(C(c2ccccc2)c2ccc(Cl)cc2)CC1` (stereo not drawn) [HYDROXYZINE], the Retention_time was 5.91 min. Under `CC[C@H]1C[C@@H]2C[C@H]3c4[nH]c5ccc(OC)cc5c4CCN(C2)[C@@H]13` [IBOGAINE] stands 4.94 min. Consider `CN(C)CCCN1c2ccccc2CCc2ccccc21` [IMIPRAMINE], for which the Retention_time is listed as 5.81 min.

For the compound `CC1Cc2ccccc2N1NC(=O)c1ccc(Cl)c(S(N)(=O)=O)c1` (stereo not drawn) [INDAPAMIDE], the Retention_time came out at 5.79 min.
